# Measured values: ChEMBL document CHEMBL3580612, “Top-down Targeted Metabolomics Reveals a Sulfur-Containing Metabolite with Inhibitory Activity against Angiotensin-Converting Enzyme in Asparagus officinalis” (J Nat Prod, 2015)
# Target: Angiotensin-converting enzyme (Homo sapiens, UniProt P12821)
# Test: Inhibition of ACE (unknown origin) using 3-Hydroxybutylyl-Gly-Gly-Gly substrate assessed as reduction in 3-Hyroxybutylic acid generation incubated for 1 hr by colorimetric assay; call rule not given here
# Sequence of Angiotensin-converting enzyme (P12821 whole entry): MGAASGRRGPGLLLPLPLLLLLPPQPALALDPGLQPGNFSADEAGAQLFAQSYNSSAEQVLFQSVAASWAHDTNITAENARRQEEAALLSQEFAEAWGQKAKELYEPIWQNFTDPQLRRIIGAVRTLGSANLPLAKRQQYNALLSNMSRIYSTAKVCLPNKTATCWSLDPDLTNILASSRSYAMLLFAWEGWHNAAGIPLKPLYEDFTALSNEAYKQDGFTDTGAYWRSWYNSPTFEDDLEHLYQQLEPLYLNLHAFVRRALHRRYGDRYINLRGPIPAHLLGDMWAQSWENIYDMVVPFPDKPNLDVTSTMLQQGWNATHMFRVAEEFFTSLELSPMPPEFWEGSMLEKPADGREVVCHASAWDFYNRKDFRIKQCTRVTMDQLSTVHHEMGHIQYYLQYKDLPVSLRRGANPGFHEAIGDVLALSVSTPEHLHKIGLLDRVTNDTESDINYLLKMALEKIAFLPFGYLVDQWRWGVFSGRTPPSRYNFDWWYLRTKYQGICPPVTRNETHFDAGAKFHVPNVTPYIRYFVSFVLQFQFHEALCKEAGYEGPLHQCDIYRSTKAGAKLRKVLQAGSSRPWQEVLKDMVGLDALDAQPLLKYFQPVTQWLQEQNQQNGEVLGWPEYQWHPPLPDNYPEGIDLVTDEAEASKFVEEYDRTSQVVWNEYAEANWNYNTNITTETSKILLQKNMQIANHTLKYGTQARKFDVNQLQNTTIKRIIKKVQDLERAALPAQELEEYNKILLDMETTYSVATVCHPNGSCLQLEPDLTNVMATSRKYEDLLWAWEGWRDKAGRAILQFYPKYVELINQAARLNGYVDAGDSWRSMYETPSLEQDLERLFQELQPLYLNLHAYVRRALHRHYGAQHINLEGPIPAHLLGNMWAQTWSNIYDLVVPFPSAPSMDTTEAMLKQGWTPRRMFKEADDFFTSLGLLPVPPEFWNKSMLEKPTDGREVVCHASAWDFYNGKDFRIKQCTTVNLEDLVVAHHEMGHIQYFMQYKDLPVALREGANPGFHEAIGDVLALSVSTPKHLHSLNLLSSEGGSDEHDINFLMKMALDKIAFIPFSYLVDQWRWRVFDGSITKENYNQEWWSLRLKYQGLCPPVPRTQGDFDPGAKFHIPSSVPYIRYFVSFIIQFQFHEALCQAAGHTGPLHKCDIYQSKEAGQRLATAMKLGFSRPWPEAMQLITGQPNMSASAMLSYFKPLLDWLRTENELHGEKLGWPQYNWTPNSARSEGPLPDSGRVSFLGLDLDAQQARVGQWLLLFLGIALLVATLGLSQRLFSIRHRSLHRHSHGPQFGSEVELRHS
IC50 (read-out: IC50) [µM],Structure (SMILES),IC50
–,N=C(N)NCCC[C@@H](N)C(=O)O,Not Active
347,O=C(OC1O[C@H](CO)[C@@H](O)[C@H](O)[C@H]1O)C1CSSC1 (stereo not given in full),–
–,O=C(O)C1CSSC1,Not Active
–,N=C(N)NCCC[C@H](N)C(=O)O [ARGININE],Not Active
–,N[C@@H](CC(=O)O)C(=O)O [ASPARTIC ACID],Not Active
